Legend:
[1] = system: reverse electron transfer (RET) from Complex II to Complex I in isolated murine brain mitochondria; assay: Reverse electron transfer (RET) assay, H2O2 (ROS) production; assay type: biochemical, mouse
Description: For mitochondria isolation, brains were dissected at a local vivarium (Explora, MA, USA) from C57BL/6 mice that were supplied by The Jackson Laboratory (Maine, USA). Brains were collected on ice in cold mitochondria isolation buffer (225 mM mannitol, 75 mM sucrose, 5 mM HEPES, 1 mM EGTA, pH 7.4). In a glass petri dish, brains were mixed with a few drops of buffer and cut into small pieces resembling a mash using scissors. Mitochondrial isolation buffer was added at 1:10-1:20 (w/v) and tissue mash was transferred to a glass Dounce tissue homogenizer and further homogenized with 10-15 strokes. Mash was centrifuged at 1,000×g for 10 min to pellet and remove cellular debris, etc. Supernatant was transferred into 2.0 mL tubes and centrifuged at 10,000×g. The mitochondria pellet was resuspended in the desired amount of miR05 buffer (Oroboros, Innsbruck, Austria) and added directly to the Oroboros oxygraph-2K (Oroboros, Innsbruck, Austria) for an experiment or maintained on ice for up to 4 hours.
All high-resolution respirometry experiments were conducted using the Oroboros O2k-Fluorespirometer (Oroboros, Innsbruck, Austria). The Oroboros O2k-Fluorespirometer was calibrated daily using the air calibration protocol on DatLab 7.4 (Oroboros, Innsbruck, Austria). Prior to each experiment requiring the fluorescence module, the AmpR calibration protocol from DatLab 7.4 was used to calibrate the fluorescence signal. Initial data analysis, including setting of marks, was performed using DatLab 7.4.
Reverse electron transfer (RET) was measured using HRR with the Oroboros O2k and DatLab 7.4. To configure the Amp channel, the light or “Fluo intensity” was set at 1000 and the amplification of signal or “Gain for Fluo sensor” at 500 and illumination in the chamber was turned “off”. To calibrate the Fluo sensors, the Instrument protocol “AmR calibration” was used. […]
Statistical analysis was performed using GraphPad Prism 9. […] RET Assay data were analyzed by 2-way ANOVA using a p-value of 0.05. […]

[2] = Pharmacokinetics of Compound 3 and Compound 4 after five daily subcutaneous doses, plasma, heart, brain; assay type: in vivo, C57BL/6 mice; conditions: for tolerability: dose levels up to 60 mg/kg, SC injection, 5 daily doses
Description: • Animals: Male/C57Bl/6 mice/-18-25 grams were received from an approved vendor. • Fasting was not required for this study. • Body weights were recorded prior to dose administration. The volume of each dose delivered (mL/kg) was based on each individual animal's body weight. • This was a multiple dose terminal study dosed once per day over 5 days. Mice were taken down following their 5th and final dose. • Doses were administered in accordance with test facility standard operating procedures. […] Any abnormalities were recorded. • Pre-formulated Compound 3 and Compound 4 were provided by Study sponsor ready to be dosed for each day in accordance with the Study Design set forth in Table 1, below.
b) Sample collection—Post Dosing: • Terminal blood samples were collected via cardiac puncture following inhalation of anesthesia in accordance with test facility standard operating procedures. • Blood samples were collected into tubes with appropriate anticoagulant. The tubes were stored on wet ice until processed to plasma by centrifugation (3500 rpm at 5° C. for 10 minutes) within 20 minutes of collection. Sample aliquots of 100 μL were transferred into individual uniquely labeled matrix tubes and stored at nominal −80° C. until transferred to analytical chemistry for analysis by LC/MS/MS. • Immediately following each terminal blood collection for all groups, animals were sacrificed and perfused with cold PBS. The following tissues were collected: heart and brain in accordance with Table 2. • Plasma and tissue samples were processed for analysis by LC/MS/MS to determine the amounts/concentrations reported in the FIGS. 18-21.

[3] = 2 μM compound prior to addition of succinate (10 mM)

Row | SMILES | H2O2 production [1, 3] | plasma exposure versus dose ([2]; mouse, 20 mg/kg and 60 mg/kg SC) | heart exposure based on AUC, Compound 3 versus Compound 4 ([2]; mouse, SC) | exposure (Cmax and AUC) heart versus brain ([2]; mouse, SC, after 5th dose) | tolerability ([2]; mouse) | concentration in heart tissue ([2]; mouse, up to 2 hours post administration after 5 days, Compound 3 20 and 60 mg/kg, Compound 4 60 mg/kg SC, FIG. 18) | concentration in brain tissue ([2]; mouse, up to 2 hours post administration after 5 days, Compound 3 20 and 60 mg/kg, Compound 4 60 mg/kg SC, FIG. 19) | H2O2 production ([1]; 1 μM compound prior to addition of succinate (10 mM)) | brain exposure based on AUC, Compound 4 versus Compound 3 ([2]; male, C57BL/6, mouse, in vivo, sc) | Tmax, Compound 4 versus Compound 3 ([2]; mouse, in vivo, sc) | exposure (Cmax and AUC) heart versus brain ([2]; mouse, in vivo, sc) | half-life, Compound 4 versus Compound 3 ([2]; mouse, in vivo, sc)
1 | CC1=C(C)C(=O)C(CC[C@@](C)(O)COCCC[Si](C)(C)C)=C(C)C1=O [Compound 3] | statistically significant reduction | roughly proportional to dose | slightly higher | higher in heart than in brain | well tolerated | up to microgram quantities of drug per gram of heart tissue | up to microgram quantities of drug per gram of brain tissue | – | – | – | – | –
2 | CC1=C(C)C(=O)C(CC[C@](C)(O)CCCCCCCCC(F)(F)F)=C(C)C1=O [Compound 4] | statistically significant reduction | – | – | – | well tolerated | – | – | statistically significant reduction | somewhat higher than Compound 3 | typically later | no difference | tended to be longer
